Data published in US4294972A, “1,2-Disubstituted oxo triazolidine” (Beecham Group Limited, priority 1978, dated 1981).

What was measured:
[1] = test system: bronchoconstriction induced by an histamine aerosol; assay: Herxheimer test: protection of conscious guinea pigs against histamine aerosol induced bronchoconstriction; format: in vivo, guinea pig; settings: at 10 μg/ml after two minutes, mean of several experiments
Experimental: 2. The compounds were also examined for their ability to protect conscious guinea pigs against bronchoconstriction induced by an histamine aerosol (Herxheimer test). In these experiments the compounds were administered by aerosol. The results are the mean of several experiments.

[2] = test system: 5-hydroxytryptamine or histamine induced bronchoconstriction; assay: Konzett-Rossler preparation: inhibition of 5-hydroxytryptamine or histamine induced bronchoconstriction, anaesthetised artificially respired guinea pig; format: in vivo; settings: Cavia porcellus, iv
Experimental: 1. The compounds were examined for their ability to inhibit 5-hydroxytryptamine or histamine induced bronchoconstriction in the anaesthetised, artificially respired guinea pig (Konzett-Rossler preparation). The compounds were administered intravenously.

Row | Structure (SMILES) | Herxheimer % increase in preconvulsive coughing time [1] | ED50 [2]
1 | CCCCCCC(C)(O)CCn1c(=O)n(C)c(=S)n1CCCCCCCC(C)=O (stereo not drawn) [Compound 9] | 52% | 26.5 µg/kg
2 | CCCCCC(O)CCn1c(=O)n(C)c(=O)n1CCCCCCCC(C)=O (stereo not drawn) [Compound 8] | 31% | 6.9 µg/kg
3 | CCCCCCC(C)(O)CCn1c(=O)n(C)c(=O)n1CCCCCCCC(C)=O (stereo not drawn) [Compound 1, 1-(8-oxononyl)-2-(3"-hydroxy-3"-methylnonyl)-4-methyl-1,2,4-triazolidine-3,5-dione] | Active | 2.7 µg/kg
